# Data published in patent US20160376605A1, “WHEAT PLANTS HAVING INCREASED TOLERANCE TO IMIDAZOLINONE HERBICIDES” (BASF SE, priority 2003, published 2016).
# Columns and labels:
# Experiment in all cases: Field Trials (2): tolerance scores at two rates of imazamox
# Format in all cases: in vivo
# [1] = system: Durum wheat M3:4 lines derived from M2 plant UT01; conditions: UT01, range across M3:4 lines
# Source text: (§1) One hundred ten M3:4 lines derived from sixteen M2 plants were screened at 71 g/ha and 160 g/ha imazamox. The number of M4 lines per M2 plant varied from one to twenty. Tolerance of M3:4 lines was compared to untreated plots of the same line as well as to treated plots of a wild-type cultivar from which some of them were derived.
# (§2) All tested lines survived at both rates of herbicide treatment, whereas all plants of the wild type were killed at both rates. Based on comparison to the wild type line, all lines tested expressed considerable tolerance to the applied rates, particularly when looking at height reduction relative to untreated plots. A rate of 35 g/ha imazamox is adequate to kill susceptible durum wheat.
# [2] = system: Durum wheat M3:4 lines derived from M2 plant UT03; conditions: UT03, range across M3:4 lines
# Source text: as §1, §2
# [3] = system: Durum wheat M3:4 lines derived from M2 plant UT05; conditions: UT05, range across M3:4 lines
# Source text: as §1, §2
# [4] = system: Durum wheat M3:4 lines derived from M2 plant UT07; conditions: UT07, range across M3:4 lines
# Source text: as §1, §2
# [5] = system: Durum wheat M3:4 lines derived from M2 plant UT08; conditions: UT08, range across M3:4 lines
# Source text: as §1, §2
# [6] = system: Durum wheat M3:4 lines derived from M2 plant UT10; conditions: UT10, range across M3:4 lines
# Source text: as §1, §2
# [7] = system: Durum wheat M3:4 lines derived from M2 plant UT12; conditions: UT12, range across M3:4 lines
# Source text: as §1, §2
# [8] = system: Durum wheat M3:4 lines derived from M2 plant UT13; conditions: UT13, range across M3:4 lines
# Source text: as §1, §2
# [9] = system: Durum wheat M3:4 lines derived from M2 plant UT14; conditions: UT14, range across M3:4 lines
# Source text: as §1, §2
# [10] = system: Durum wheat M3:4 lines derived from M2 plant UT15; conditions: UT15, range across M3:4 lines
# Source text: as §1, §2
# [11] = system: Durum wheat M3:4 lines derived from M2 plant UT16; conditions: UT16, range across M3:4 lines
# Source text: as §1, §2
# [12] = system: Durum wheat M3:4 lines derived from M2 plant UT19; conditions: UT19, range across M3:4 lines
# Source text: as §1, §2
# [13] = system: Durum wheat M3:4 lines derived from M2 plant UT20; conditions: UT20, range across M3:4 lines
# Source text: as §1, §2
structure (smiles),measurement,setting,value
COCc1cnc(C2=NC(C)(C(C)C)C(=O)N2)c(C(=O)O)c1 (stereo not shown) [imazamox],% Chlorosis,"[1]; imazamox 71 g/ha, 14 DAT",0-10%
same,% Height Reduction,"[1]; imazamox 71 g/ha, 14 DAT",0%
same,% Chlorosis,"[1]; imazamox 71 g/ha, 30 DAT",0%
same,% Height Reduction,"[1]; imazamox 71 g/ha, 30 DAT",0-10%
same,% Chlorosis,"[1]; imazamox 160 g/ha, 14 DAT",1-10%
same,% Height Reduction,"[1]; imazamox 160 g/ha, 14 DAT",0%
same,% Chlorosis,"[1]; imazamox 160 g/ha, 30 DAT",0-5%
same,% Height Reduction,"[1]; imazamox 160 g/ha, 30 DAT",0-20%
same,% Chlorosis,"[2]; imazamox 71 g/ha, 14 DAT",0%
same,% Height Reduction,"[2]; imazamox 71 g/ha, 14 DAT",10%
same,% Chlorosis,"[2]; imazamox 71 g/ha, 30 DAT",5%
same,% Height Reduction,"[2]; imazamox 71 g/ha, 30 DAT",5%
same,% Chlorosis,"[2]; imazamox 160 g/ha, 14 DAT",5%
same,% Height Reduction,"[2]; imazamox 160 g/ha, 14 DAT",10%
same,% Chlorosis,"[2]; imazamox 160 g/ha, 30 DAT",5%
same,% Height Reduction,"[2]; imazamox 160 g/ha, 30 DAT",5%
same,% Chlorosis,"[3]; imazamox 71 g/ha, 14 DAT",5-10%
same,% Height Reduction,"[3]; imazamox 71 g/ha, 14 DAT",5-10%
same,% Chlorosis,"[3]; imazamox 71 g/ha, 30 DAT",5-10%
same,% Height Reduction,"[3]; imazamox 71 g/ha, 30 DAT",5-10%
same,% Chlorosis,"[3]; imazamox 160 g/ha, 14 DAT",5-15%
same,% Height Reduction,"[3]; imazamox 160 g/ha, 14 DAT",10-30%
same,% Chlorosis,"[3]; imazamox 160 g/ha, 30 DAT",5-20%
same,% Height Reduction,"[3]; imazamox 160 g/ha, 30 DAT",5-20%
same,% Chlorosis,"[4]; imazamox 71 g/ha, 14 DAT",0-5%
same,% Height Reduction,"[4]; imazamox 71 g/ha, 14 DAT",0-10%
same,% Chlorosis,"[4]; imazamox 71 g/ha, 30 DAT",0-10%
same,% Height Reduction,"[4]; imazamox 71 g/ha, 30 DAT",0-5%
same,% Chlorosis,"[4]; imazamox 160 g/ha, 14 DAT",5-10%
same,% Height Reduction,"[4]; imazamox 160 g/ha, 14 DAT",0-10%
same,% Chlorosis,"[4]; imazamox 160 g/ha, 30 DAT",5-15%
same,% Height Reduction,"[4]; imazamox 160 g/ha, 30 DAT",0-10%
same,% Chlorosis,"[5]; imazamox 71 g/ha, 14 DAT",0-10%
same,% Height Reduction,"[5]; imazamox 71 g/ha, 14 DAT",0-10%
same,% Chlorosis,"[5]; imazamox 71 g/ha, 30 DAT",0-10%
same,% Height Reduction,"[5]; imazamox 71 g/ha, 30 DAT",0-10%
same,% Chlorosis,"[5]; imazamox 160 g/ha, 14 DAT",0-10%
same,% Height Reduction,"[5]; imazamox 160 g/ha, 14 DAT",0-10%
same,% Chlorosis,"[5]; imazamox 160 g/ha, 30 DAT",0-15%
same,% Chlorosis,"[6]; imazamox 71 g/ha, 14 DAT",5-10%
same,% Height Reduction,"[6]; imazamox 71 g/ha, 14 DAT",0-10%
same,% Chlorosis,"[6]; imazamox 71 g/ha, 30 DAT",5%
same,% Height Reduction,"[6]; imazamox 71 g/ha, 30 DAT",0-5%
same,% Chlorosis,"[6]; imazamox 160 g/ha, 14 DAT",10%
same,% Height Reduction,"[6]; imazamox 160 g/ha, 14 DAT",0-20%
same,% Chlorosis,"[6]; imazamox 160 g/ha, 30 DAT",5%
same,% Height Reduction,"[6]; imazamox 160 g/ha, 30 DAT",0-10%
same,% Chlorosis,"[7]; imazamox 71 g/ha, 14 DAT",0-10%
same,% Height Reduction,"[7]; imazamox 71 g/ha, 14 DAT",0-10%
same,% Chlorosis,"[7]; imazamox 71 g/ha, 30 DAT",0-5%
same,% Height Reduction,"[7]; imazamox 71 g/ha, 30 DAT",0-10%
same,% Chlorosis,"[7]; imazamox 160 g/ha, 14 DAT",10-15%
same,% Height Reduction,"[7]; imazamox 160 g/ha, 14 DAT",10-20%
same,% Chlorosis,"[7]; imazamox 160 g/ha, 30 DAT",5-10%
same,% Height Reduction,"[7]; imazamox 160 g/ha, 30 DAT",5-10%
same,% Chlorosis,"[8]; imazamox 71 g/ha, 14 DAT",5%
same,% Height Reduction,"[8]; imazamox 71 g/ha, 14 DAT",0-10%
same,% Chlorosis,"[8]; imazamox 71 g/ha, 30 DAT",5%
same,% Height Reduction,"[8]; imazamox 71 g/ha, 30 DAT",5%
same,% Chlorosis,"[8]; imazamox 160 g/ha, 14 DAT",5%
same,% Height Reduction,"[8]; imazamox 160 g/ha, 14 DAT",0-10%
same,% Chlorosis,"[8]; imazamox 160 g/ha, 30 DAT",5-10%
same,% Height Reduction,"[8]; imazamox 160 g/ha, 30 DAT",5%
same,% Chlorosis,"[9]; imazamox 71 g/ha, 14 DAT",5-10%
same,% Height Reduction,"[9]; imazamox 71 g/ha, 14 DAT",0%
same,% Chlorosis,"[9]; imazamox 71 g/ha, 30 DAT",0%
same,% Height Reduction,"[9]; imazamox 71 g/ha, 30 DAT",0-10%
same,% Chlorosis,"[9]; imazamox 160 g/ha, 14 DAT",10%
same,% Height Reduction,"[9]; imazamox 160 g/ha, 14 DAT",0-10%
same,% Chlorosis,"[9]; imazamox 160 g/ha, 30 DAT",0%
same,% Height Reduction,"[9]; imazamox 160 g/ha, 30 DAT",0-10%
same,% Chlorosis,"[10]; imazamox 71 g/ha, 14 DAT",30-70%
same,% Height Reduction,"[10]; imazamox 71 g/ha, 14 DAT",0-10%
same,% Chlorosis,"[10]; imazamox 71 g/ha, 30 DAT",0-10%
same,% Height Reduction,"[10]; imazamox 71 g/ha, 30 DAT",5-20%
same,% Chlorosis,"[10]; imazamox 160 g/ha, 14 DAT",30-70%
same,% Height Reduction,"[10]; imazamox 160 g/ha, 14 DAT",0-10%
same,% Chlorosis,"[10]; imazamox 160 g/ha, 30 DAT",0-15%
same,% Height Reduction,"[10]; imazamox 160 g/ha, 30 DAT",5-30%
same,% Chlorosis,"[11]; imazamox 71 g/ha, 14 DAT",5-10%
same,% Height Reduction,"[11]; imazamox 71 g/ha, 14 DAT",0%
same,% Chlorosis,"[11]; imazamox 71 g/ha, 30 DAT",0%
same,% Height Reduction,"[11]; imazamox 71 g/ha, 30 DAT",0-10%
same,% Chlorosis,"[11]; imazamox 160 g/ha, 14 DAT",10-20%
same,% Height Reduction,"[11]; imazamox 160 g/ha, 14 DAT",0-10%
same,% Chlorosis,"[11]; imazamox 160 g/ha, 30 DAT",0-5%
same,% Height Reduction,"[11]; imazamox 160 g/ha, 30 DAT",0-10%
same,% Chlorosis,"[12]; imazamox 71 g/ha, 14 DAT",30-40%
same,% Height Reduction,"[12]; imazamox 71 g/ha, 14 DAT",0-10%
same,% Chlorosis,"[12]; imazamox 71 g/ha, 30 DAT",0%
same,% Height Reduction,"[12]; imazamox 71 g/ha, 30 DAT",5-20%
same,% Chlorosis,"[12]; imazamox 160 g/ha, 14 DAT",40%
same,% Height Reduction,"[12]; imazamox 160 g/ha, 14 DAT",0-10%
same,% Chlorosis,"[12]; imazamox 160 g/ha, 30 DAT",0-5%
same,% Height Reduction,"[12]; imazamox 160 g/ha, 30 DAT",10-20%
same,% Chlorosis,"[13]; imazamox 71 g/ha, 14 DAT",0-5%
same,% Height Reduction,"[13]; imazamox 71 g/ha, 14 DAT",0%
same,% Chlorosis,"[13]; imazamox 71 g/ha, 30 DAT",0%
same,% Height Reduction,"[13]; imazamox 71 g/ha, 30 DAT",5-10%
same,% Chlorosis,"[13]; imazamox 160 g/ha, 14 DAT",5-10%
same,% Height Reduction,"[13]; imazamox 160 g/ha, 14 DAT",0-20%
same,% Chlorosis,"[13]; imazamox 160 g/ha, 30 DAT",0%
same,% Height Reduction,"[13]; imazamox 160 g/ha, 30 DAT",10-15%
